A value given as a limit tells only on which side of the number the result lay.

The target of the first test is GCN2 (Homo sapiens, UniProt Q9P2K8). The test can be described thus: GCN2 enzymatic endpoint assay: phosphorylation of GFP-eIF2α measured by TR-FRET (Lanthascreen). In kind it is biochemical. Particulars: GCN2 biochemical IC50; 4 nM GCN2, 2 μM ATP, 80 nM GFP-eIF2α, 90 min RT; read-out: GCN2 activity. The procedure, abridged: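 Phosphorylated eIF2α read by Lanthascreen TR-FRET (acceptor 520 nm over donor 495 nm) after EDTA stop. The reaction ran 90 min at room temperature on 80 nM GFP-eIF2α with 2 μM ATP.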
Chain of GCN2 (Q9P2K8 whole entry): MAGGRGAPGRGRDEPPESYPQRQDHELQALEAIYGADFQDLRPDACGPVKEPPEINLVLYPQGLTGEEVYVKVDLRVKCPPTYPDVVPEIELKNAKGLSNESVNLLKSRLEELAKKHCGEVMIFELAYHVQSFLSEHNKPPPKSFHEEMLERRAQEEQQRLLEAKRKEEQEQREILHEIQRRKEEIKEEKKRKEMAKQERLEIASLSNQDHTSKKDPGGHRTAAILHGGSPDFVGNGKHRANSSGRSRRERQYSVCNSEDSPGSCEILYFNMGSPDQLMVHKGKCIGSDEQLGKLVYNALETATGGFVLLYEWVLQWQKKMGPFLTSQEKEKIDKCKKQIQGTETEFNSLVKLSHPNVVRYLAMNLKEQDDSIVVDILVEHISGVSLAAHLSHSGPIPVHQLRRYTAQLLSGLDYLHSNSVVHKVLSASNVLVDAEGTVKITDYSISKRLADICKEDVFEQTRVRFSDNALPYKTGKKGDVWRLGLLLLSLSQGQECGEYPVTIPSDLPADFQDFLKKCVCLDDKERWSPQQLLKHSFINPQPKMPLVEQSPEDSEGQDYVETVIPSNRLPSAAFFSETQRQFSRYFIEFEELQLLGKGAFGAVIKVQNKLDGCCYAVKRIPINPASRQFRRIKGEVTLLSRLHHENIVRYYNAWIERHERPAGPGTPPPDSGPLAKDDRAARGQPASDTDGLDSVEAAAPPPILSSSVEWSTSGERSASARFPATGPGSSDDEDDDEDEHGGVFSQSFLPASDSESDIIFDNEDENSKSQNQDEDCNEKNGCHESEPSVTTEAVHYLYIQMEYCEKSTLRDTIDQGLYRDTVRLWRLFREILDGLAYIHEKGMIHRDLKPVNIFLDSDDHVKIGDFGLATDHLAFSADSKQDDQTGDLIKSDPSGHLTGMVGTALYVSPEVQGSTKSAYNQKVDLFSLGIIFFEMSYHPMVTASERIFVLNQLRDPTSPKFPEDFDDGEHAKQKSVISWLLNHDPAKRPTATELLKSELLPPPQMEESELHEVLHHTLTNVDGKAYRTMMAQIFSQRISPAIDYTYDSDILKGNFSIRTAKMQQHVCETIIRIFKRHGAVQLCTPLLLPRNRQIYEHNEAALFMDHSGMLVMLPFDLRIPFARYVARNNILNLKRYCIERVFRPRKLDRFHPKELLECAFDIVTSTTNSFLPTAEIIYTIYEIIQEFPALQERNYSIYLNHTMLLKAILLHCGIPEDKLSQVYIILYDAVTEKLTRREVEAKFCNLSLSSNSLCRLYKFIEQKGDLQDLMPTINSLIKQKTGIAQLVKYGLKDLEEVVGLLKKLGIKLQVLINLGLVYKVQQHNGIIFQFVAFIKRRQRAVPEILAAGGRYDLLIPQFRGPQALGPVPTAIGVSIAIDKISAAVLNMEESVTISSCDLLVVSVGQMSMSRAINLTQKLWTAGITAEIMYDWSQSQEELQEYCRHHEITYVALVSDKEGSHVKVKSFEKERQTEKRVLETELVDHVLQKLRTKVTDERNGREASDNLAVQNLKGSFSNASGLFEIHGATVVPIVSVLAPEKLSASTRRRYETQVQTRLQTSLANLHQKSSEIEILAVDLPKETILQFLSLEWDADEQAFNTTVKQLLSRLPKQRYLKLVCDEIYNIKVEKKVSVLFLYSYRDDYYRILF
On the technique in general: Time-resolved FRET reads energy transfer from a long-lived donor to a nearby acceptor.
As to `CNC(=O)C1(C)CC[C@@H](Nc2ncc3c(Br)nn(-c4cc(Cl)cc(CO)c4)c3n2)C1` (mixture of isomers) [Example 17, (3R)-3-((3-bromo-1-(3-chloro-5-(hydroxymethyl)phenyl)-1H-pyrazolo[3,4-d]pyrimidin-6-yl)amino)-N,1-dimethylcyclopentane-1-carboxamide], the IC50 was in the range of 25 to 200 nM.

The same test, now with this note: tested as described in Example 77; compound and/or hydrochloride, dihydrochloride or trifluoroacetic acid salt; read-out: IC 50 Activity.
For the compound `CNC(=O)[C@]1(C)CC[C@@H](Nc2ncc3c(Br)nn(-c4ccc(-c5nnc(C)s5)c(CCN)c4)c3n2)C1` [(1R,3R)-3-[[1-[3-(2-aminoethyl)-4-(5-methyl-1,3,4-thiadiazol-2-yl)phenyl]-3-bromo-pyrazolo[3,4-d]pyrimidin-6-yl]amino]-N,1-dimethyl-cyclopentane-carboxamide], the IC50 was 25 to 200 nM. Same read-out and setting: the figure for `CNC(=O)[C@]1(C)CC[C@@H](Nc2ncc3c(Br)nn(-c4cc(Cl)cc(C(=O)N5CCNCC5)c4)c3n2)C1` [(1R,3R)-3-[[3-bromo-1-[3-chloro-5-(piperazine-1-carbonyl)phenyl]pyrazolo [3,4-d]pyrimidin-6-yl]amino]-N,1-dimethyl-cyclopentanecarboxamide] is 25 to 200 nM; for `CP(C)(=O)[C@@H]1CC[C@@H](Nc2ncc3c(Br)nn(-c4cc(C#N)cc(OCC5(F)CNC5)c4)c3n2)C1` [3-[3-bromo-6-[[(1R,3R)-3-dimethylphosphorylcyclopentyl]amino]pyrazolo[3,4-d]pyrimidin-1-yl]-5-[(3-fluoroazetidin-3-yl)methoxy]benzonitrile] it is 25 to 200 nM; for `CC[C@@]1(C(=O)NC)CC[C@@H](Nc2ncc3c(Br)nn(-c4cc(F)c5ncccc5c4)c3n2)C1` [(1R,3R)-3-[[3-bromo-1-(8-fluoro-6-quinolyl)pyrazolo[3,4-d]pyrimidin-6-yl]amino]-1-ethyl-N-methyl-cyclopentanecarboxamide] it is under 25 nM. Still for that read-out and setting: the figure for `N#Cc1cc(-n2nc(Br)c3cnc(N[C@@H]4CC[C@@H](C(=O)N5CCN(C(=O)CO)CC5)C4)nc32)cc2cccnc12` [6-(3-bromo-6-(((1R,3R)-3-(4-(2-hydroxyacetyl)piperazine-1-carbonyl)cyclopentyl)amino)-1H-pyrazolo[3,4-d]pyrimidin-1-yl)quinoline-8-carbonitrile] is 25 to 200 nM.

Take `CC(C)NC(=O)[C@@H]1CC[C@@H](Nc2ncc3c(Br)nn(-c4cc(C#N)c5ncccc5c4)c3n2)C1` [(1R,3R)-3-((3-bromo-1-(8-cyanoquinolin-6-yl)-1H-pyrazolo[3,4-d]pyrimidin-6-yl)amino)-N-isopropylcyclopentane-1-carboxamide]: the IC50 lay in the range of 25 to 200 nM.

As for `CNC(=O)[C@]1(C)CC[C@@H](Nc2ncc3c(Br)nn(-c4cc(CC#N)c5ncccc5c4)c3n2)C1` [(1R,3R)-3-[[3-bromo-1-[8-(cyanomethyl)-6-quinolyl]pyrazolo[3,4-d]pyrimidin-6-yl]amino]-N,1-dimethyl-cyclopentane-carboxamide], the IC50 is under 25 nM. On the same count and under the same terms, under `CNC(=O)[C@]1(C)CC[C@@H](Nc2ncc3c(Br)nn(-c4ccc5nc(N6CCNCC6)ncc5c4)c3n2)C1` stands under 25 nM. Same read-out and setting: the figure for `CNC(=O)[C@]1(C)CC[C@@H](Nc2ncc3c(Br)nn(-c4ccc5[nH]c(=O)ncc5c4)c3n2)C1` [(1R,3R)-3-[[3-bromo-1-(2-oxo-1H-quinazolin-6-yl)pyrazolo[3,4-d]pyrimidin-6-yl]amino]-N,1-dimethyl-cyclopentane-carboxamide; 2,2,2-trifluoroacetic acid] is 25 to 200 nM; for `O=C(O)C1CN(C(=O)[C@@H]2CC[C@@H](Nc3ncc4c(Br)nn(-c5ccc6ncccc6c5)c4n3)C2)CCN1` (mixture of isomers) it is under 25 nM.

As to `COCCNC(=O)[C@]1(C)CC[C@@H](Nc2ncc3c(Br)nn(-c4ccc(-c5nnc(C)s5)cc4)c3n2)C1` [(1R,3R)-3-[[3-bromo-1-[4-(5-methyl-1,3,4-thiadiazol-2-yl)phenyl]pyrazolo [3,4-d]pyrimidin-6-yl]amino]-N-(2-methoxyethyl)-1-methyl-cyclopentane-carboxamide], the IC50 was 25 to 200 nM. The same measure, in the same setting: under `CN1CCN(C(=O)[C@@H]2CC[C@@H](Nc3ncc4c(Br)nn(-c5ccc6ncccc6c5)c4n3)C2)CC1=O` [4-((1R,3R)-3-((3-bromo-1-(quinolin-6-yl)-1H-pyrazolo[3,4-d]pyrimidin-6-yl)amino)cyclo-pentane-1-carbonyl)-1-methylpiperazin-2-one] stands 25 to 200 nM; under `CNC(=O)[C@]1(C)CC[C@@H](Nc2ncc3c(Br)nn(-c4cc(CS(C)(=O)=O)c5ncccc5c4)c3n2)C1` [(1R,3R)-3-[[3-bromo-1-[8-(methylsulfonyl-methyl)-6-quinolyl]pyrazolo[3,4-d]pyrimidin-6-yl]amino]-N,1-dimethyl-cyclopentanecarboxamide], 25 to 200 nM; under `CNC(=O)[C@]1(C)CC[C@@H](Nc2ncc3c(Br)nn(-c4ccc(-c5ncco5)c(C5CCCNC5)c4)c3n2)C1` (stereo partly drawn) [(1R,3R)-3-[[3-bromo-1-[4-oxazol-2-yl-3-(3-piperidyl)phenyl]pyrazolo[3,4-d]pyrimidin-6-yl]amino]-N,1-dimethyl-cyclopentanecarboxamide], 25 to 200 nM. Still for that read-out and setting: under `CNC(=O)[C@]1(C)CC[C@@H](Nc2ncc3c(Br)nn(-c4cc(CCN5CCOCC5)c5ncccc5c4)c3n2)C1` [(1R,3R)-3-[[3-bromo-1-[8-(2-morpholinoethyl)-6-quinolyl]pyrazolo [3,4-d]pyrimidin-6-yl]amino]-N,1-dimethyl-cyclopentanecarboxamide] stands 25 to 200 nM; under `CNC(=O)[C@]1(C)CC[C@@H](Nc2ncc3c(Br)nn(-c4ccc(-c5ncco5)c(NC(=O)CCN)c4)c3n2)C1` [(1R,3R)-3-[[1-[3-(3-aminopropanoyl-amino)-4-oxazol-2-yl-phenyl]-3-bromo-pyrazolo[3,4-d]pyrimidin-6-yl]amino]-N,1-dimethyl-cyclopentane-carboxamide], under 25 nM. Same read-out and setting: the figure for `CN(CC1(C)COC1)C(=O)C1(C)CC[C@@H](Nc2ncc3c(Br)nn(-c4cc(F)c5ncccc5c4)c3n2)C1` (some centres unmarked) is under 25 nM; for `CNC(=O)[C@]1(CCOC)CC[C@@H](Nc2ncc3c(Br)nn(-c4ccc(-c5nnc(C)s5)cc4)c3n2)C1` it is 25 to 200 nM. Take `CNC(=O)C1(C)CC[C@@H](Nc2ncc3c(Br)nn(-c4ccc5cnc(OC)cc5c4)c3n2)C1` (stereo partly drawn) [(3R)-3-[[3-bromo-1-(3-methoxy-6-isoquinolyl)pyrazolo[3,4-d]pyrimidin-6-yl]amino]-N,1-dimethyl-cyclopentane-carboxamide]: the IC50 was in the range of 25 to 200 nM. With `CNC(=O)[C@]1(C)CC[C@@H](Nc2ncc3c(Br)nn(-c4ccc(-n5ccnc5)cc4)c3n2)C1` [(1R,3R)-3-[[3-bromo-1-(4-imidazol-1-ylphenyl)pyrazolo[3,4-d]pyrimidin-6-yl]amino]-N,1-dimethyl-cyclo-pentanecarboxamide], the IC50 lay in the range of 25 to 200 nM. Take `O=C(NCC(F)(F)CO)[C@@H]1CC[C@@H](Nc2ncc3c(Br)nn(-c4cc(F)c5ncccc5c4)c3n2)C1`: the IC50 is 25 to 200 nM. On the same count and under the same terms, the figure for `CC1(C(=O)N2CCNCC2)CC[C@@H](Nc2ncc3c(Br)nn(-c4cc(F)c5ncccc5c4)c3n2)C1` (stereo partly drawn) [[(3R)-3-[[3-bromo-1-(8-fluoro-6-quinolyl)pyrazolo[3,4-d]pyrimidin-6-yl]amino]-1-methyl-cyclopentyl]-piperazin-1-yl-methanone] is under 25 nM.

Values taken from US11046699B2, “Pyrazolo-pyrimidin-amino-cycloalkyl compounds and their therapeutic uses” (RAPT THERAPEUTICS, INC., priority 2018, dated 2021).
